# Assay results as given in patent US8993254B2, “Methods for evaluating risk of mother's milk or food inducing an onset of atopic dermatitis, and mother's milk or food with reduced risk of inducing an onset of atopic dermatitis” (Saitama Medical University, priority 2009, dated 2015).
# Experiments:
# [1] = tested on: THP-1 cells; test: Measurement of intracellular cAMP concentration in PMA-treated THP-1 cells; type: cell-based; conditions: THP-1 cells treated with PMA, co-incubated with 10 to 30 μg/ml (13 to 39 μM) of coenzyme A
# Protocol: In a humid incubator under conditions of 37° C. and 5% CO2, THP-1 cells were cultured in an RPMI1640 medium supplemented with 10% fetal bovine serum, 1% penicillin and streptomycin, and 1% L-glutamine. The THP-1 cells were exposed to 50 ng/ml of PMA (phorbol 12-myristate 13-acetate) for 48 hours, followed by washing. Then, the cells were cultured at 37° C. in the presence of 1 mM 3-isobutyl-1-methyl-xanthine. After 10 minutes, the cells were stimulated with 30% mother's milk (AD: n=55, non-AD: n=55) for 10 minutes, and lysed with cell lysis buffer (Molecular Devices). In some experiments, THP-1 cells treated with 50 ng/ml of PMA for 48 hours were exposed to 10 μM prostaglandin E2 (PGE2). The intracellular cAMP level was measured using CatchPoint™ cyclicAMP fluorescent assay kit (Molecular Devices LLC) in accordance with the maker instruction. In some experiments, delta (Δ)-cAMP was calculated by subtracting the cAMP concentration in THP-1 stimulated with PMA without adjuvant stimulation from the cAMP concentration in THP-1 stimulated with PMA with adjuvant stimulation.
# [2] = tested on: Human monocyte-derived dendritic cells (Mo-DCs); test: Analysis of T cell-differentiation using dendritic cells (mixed lymphocyte reaction, IFNγ and IL-5 ELISA); type: cell-based; conditions: Mo-DCs pretreated with 1 μg/ml of coenzyme A (FIG. 3B)
# Protocol: Human Mo-DCs and CD45RA-positive naive T cells (purity of more than 99%) were prepared according to the previous report (Takagi, R. et al., J Immunol 181: 186-189, 2008).
# The immature Mo-DCs were stimulated with 1 to 10% of a liquid fraction of mother's milk or 0 to 10 μg/ml of coenzyme A. Two days after culturing with the liquid fraction or coenzyme A, to induce a mixed lymphocyte reaction (MLR), the cell component was further cultured together with HLA-DR-nonshared allogenic CD4-positive naive T cells in an RPMI1640 medium supplemented with 10% human serum for 6 to 8 days. Then, the T cells were restimulated with an anti-CD3 antibody and an anti-CD28 antibody (BD Pharmingen Inc.). After 48 hours, the culture supernatant was collected to analyze IFNγ and IL-5 by ELISA using IFNγ and IL-5 ELISA kits (R&D systems, Inc.).
# [3] = tested on: SJL/J mice; test: Mixed lymphocyte reaction using CD3ε-negative cells harvested from mice to which coenzyme A had been orally administered; type: in vivo
# Protocol: SJL/J mice (H-2^s) and Nc/Nga mice (non H-2^s) were purchased from Charles River Inc. and Japan SLC, Inc., respectively. 50 μg/ml of coenzyme A was orally administered to the SJL/J mice. Two days later, CD3ε-negative cells were obtained from mesenteric lymph node cells using “[…]” (Miltenyi Biotec Inc.). On the same day, CD62L-positive naive CD4-positive T cells were obtained from the spleens of the Nc/Nga mice using “CD4^+ T cell isolation kit” and “CD62L^+ T cell isolation kit” (Miltenyi Biotec Inc.). Then, 1×10^4 CD3ε-negative cells and 1×10^5 allogenic CD62L-positive naive CD4-positive T cells were co-cultured in a 96-well flat-bottomed culture plate. A mixed lymphocyte reaction (MLR) was induced in an RPMI1640 medium supplemented with 10% FCS for 7 days. Next, the T cells were restimulated with an anti-CD3 antibody and an anti-CD28 antibody (Biolegends, Inc.). The culture supernatant were harvested 16 hours later, and analyzed for IFNγ, IL-4, and
# IL-5 using IFNγ, IL-4 and IL-5 ELISA kits (R&D systems, Inc.).
# Coenzyme A-containing drinking water (10 to 20 μg/kg/day) was orally administered to mice. […] cells were isolated from the mesenteric lymph node 2 days after the coenzyme A administration, and co-cultured with allogenic CD62L-positive naive CD4-positive T cells.
# [4] = oral, drinking water 10 to 20 μg/kg/day, mesenteric lymph node cells isolated 2 days after administration (FIG. 4A)
# [5] = treated mice, oral 10 to 20 μg/kg/day (FIG. 4B)
compound,measurement,setting,value
CC(C)(COP(=O)(O)OP(=O)(O)OC[C@H]1O[C@@H](n2cnc3c(N)ncnc32)[C@H](O)[C@@H]1OP(=O)(O)O)[C@@H](O)C(=O)NCCC(=O)NCCS [coenzyme A],intracellular cAMP,[1],elevated
same,differentiation of allogenic naive CD4-positive T cells into Th2 cells,[2],differentiated into Th2 cells
same,IFNγ production in T cells (MLR),[3]; [4],No statistically significant difference
same,IL-4 production in T cells (MLR),[3]; [4],significantly induced
same,IL-5 production in T cells (MLR),[3]; [4],significantly induced
same,IL-4/IFNγ ratio,[3]; [5],significantly high
same,IL-5/IFN ratio,[3]; [5],significantly high
